Measured values: ChEMBL document CHEMBL1129861, “SAR for MHC class II binding tetrapeptides: Correlation with potential binding site” (Bioorg Med Chem Lett, 1997)
Residues, ends and D or L forms follow the SMILES beside them. *: point of attachment. Ethoxycarbonyl = CCOC(=O)*

Columns and labels:
HLA-DRB1*01:01 [1] = test: Inhibitory concentration to inhibit the binding of biotinylated rat myelin basic protein peptide (RMBP90-102) against DR1 allele of class II MHC for 20 min
HLA-DRB1*01:01 [2] = test: Inhibitory concentration required to inhibit the binding of biotinylated rat myelin basic protein peptide (RMBP90-102) against DR1 allele of class II for 5 hr
Rattus norvegicus [3] = species: Rattus norvegicus; test: Inhibitory concentration of compound to inhibit the binding of biotinylated rat myelin basic protein peptide (RMBP90-102) against DR4 allele of class II for 20 min; format: functional
Rattus norvegicus [4] = species: Rattus norvegicus; test: Inhibitory concentration of compound to inhibit the binding of biotinylated rat myelin basic protein peptide (RMBP90-102) against DR4 allele of class II for 5 hr; format: functional
Rattus norvegicus [5] = species: Rattus norvegicus; test: Inhibitory concentration of compound to inhibit the binding of biotinylated rat myelin basic protein peptide (RMBP90-102) against DR1 allele of class II for 45 min; format: functional

Row | Compound | IC50 (HLA-DRB1*01:01 [1]) [nM] | IC50 (HLA-DRB1*01:01 [2]) [nM] | IC50 (Rattus norvegicus [3]) [nM] | IC50 (Rattus norvegicus [4]) [nM] | IC50 (Rattus norvegicus [5]) [nM]
1 | CCOC(=O)N[C@H](Cc1ccc(Cl)cc1)C(=O)N[C@H](C(=O)N[C@@H](C)C(=O)N[C@@H](CC(C)C)C(N)=O)C(C)C | 19 | 73 | – | – | –
2 | CCOC(=O)N[C@H](Cc1cccnc1)C(=O)N[C@H](C(=O)N[C@@H](C)C(=O)N[C@@H](CC(C)C)C(N)=O)C(C)C | 5300 | 28000 | – | – | –
3 | CCOC(=O)N[C@@H](Cc1ccccc1)C(=O)N[C@H](C(=O)N[C@@H](C)C(=O)N[C@@H](CC(=O)O)C(N)=O)C(C)C (Ethoxycarbonyl-FVAD-NH2) | – | – | 1200 | 50000 | –
4 | CCOC(=O)N[C@H](Cc1ccc(OC(C)=O)cc1)C(=O)N[C@H](C(=O)N[C@@H](C)C(=O)N[C@@H](CC(C)C)C(N)=O)C(C)C | 240 | 1900 | – | – | –
5 | CCOC(=O)N[C@H](Cc1ccc(OC)cc1)C(=O)N[C@H](C(=O)N[C@@H](C)C(=O)N[C@@H](CC(C)C)C(N)=O)C(C)C | 46 | 180 | – | – | –

Second part, the molecule after the results:

Row | IC50 (HLA-DRB1*01:01 [1]) [nM] | IC50 (HLA-DRB1*01:01 [2]) [nM] | IC50 (Rattus norvegicus [3]) [nM] | IC50 (Rattus norvegicus [4]) [nM] | IC50 (Rattus norvegicus [5]) [nM] | Compound
6 | 5700 | 45000 | – | – | – | CCOC(=O)N[C@H](CC(=O)c1ccccc1)C(=O)N[C@H](C(=O)N[C@@H](C)C(=O)N[C@@H](CC(C)C)C(N)=O)C(C)C
7 | 270 | 7000 | – | – | – | CCOC(=O)N[C@H](CSCc1ccccc1)C(=O)N[C@H](C(=O)N[C@@H](C)C(=O)N[C@@H](CC(C)C)C(N)=O)C(C)C
8 | – | – | – | – | 1800 | CC(C)C[C@H](NC(=O)[C@H](C)NC(=O)[C@@H](NC(=O)[C@@H](N)Cc1ccccc1)C(C)C)C(N)=O (H-FVAL-NH2)
9 | – | – | 8200 | – | – | CCOC(=O)N[C@@H](Cc1ccccc1)C(=O)N[C@H](C(=O)N[C@@H](C)C(=O)N[C@@H](CC(C)C)C(N)=O)C(C)C (Ethoxycarbonyl-FVAL-NH2)
